# Results from publication PMC3698126, “MtnBD Is a Multifunctional Fusion Enzyme in the Methionine Salvage Pathway of Tetrahymena thermophila” (PLoS ONE, 2013).
# Legend:
# [1] = target: Tetrahymena thermophila MtnBD, full-length, histidine-tagged recombinant protein (Tetrahymena thermophila); experiment: native gel or EMSA; native-PAGE, 5-20% gradient polyacrylamide gel, non-denaturing conditions, 1 ug purified protein, mass estimated against native high molecular weight markers; oligomer size from native mass over calculated monomer mass
# [2] = target: T1, Full-length MtnBD (Tetrahymena thermophila, UniProt I7MAL0); experiment: UV-visible and 1H-NMR product analysis; format: biochemical; conditions: dehydratase/enolase to HK-MTPenyl-1-P; 5 mM MgCl2, pH 8.0, 35°C; substrate made in situ from MTR-1-P by MtnA; kcat only, no Km
# T1 construct: gene TTHERM_00467500
# T1 sequence (I7MAL0 1-400): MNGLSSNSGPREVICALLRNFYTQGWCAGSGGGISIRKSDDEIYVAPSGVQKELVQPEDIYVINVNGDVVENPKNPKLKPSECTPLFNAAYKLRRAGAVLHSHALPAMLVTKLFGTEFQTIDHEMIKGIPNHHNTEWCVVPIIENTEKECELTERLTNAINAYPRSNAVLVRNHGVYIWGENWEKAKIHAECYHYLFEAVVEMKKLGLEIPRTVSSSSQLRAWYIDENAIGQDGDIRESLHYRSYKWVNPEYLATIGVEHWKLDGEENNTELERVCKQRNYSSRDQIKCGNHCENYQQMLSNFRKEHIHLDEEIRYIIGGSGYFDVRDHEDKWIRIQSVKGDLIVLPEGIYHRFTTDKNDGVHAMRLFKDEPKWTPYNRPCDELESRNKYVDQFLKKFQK
# [3] = target: T2, MtnB domain (Tetrahymena thermophila, UniProt I7MAL0); experiment: UV-visible and 1H-NMR product analysis; format: biochemical; conditions: dehydratase/enolase to HK-MTPenyl-1-P; 5 mM MgCl2, pH 8.0, 35°C; substrate made in situ from MTR-1-P by MtnA; kcat only, no Km
# T2 construct: gene TTHERM_00467500
# [4] = target: T3, B. subtilis MtnX (Bacillus subtilis, UniProt O31667); experiment: UV-visible spectral shift to […] nm and 1H-NMR; format: biochemical; conditions: phosphatase reaction to DHK-MTPene; pH 8.0, 35°C; substrate made in situ by T. thermophila MtnB domain
# T3 sequence (O31667 1-235): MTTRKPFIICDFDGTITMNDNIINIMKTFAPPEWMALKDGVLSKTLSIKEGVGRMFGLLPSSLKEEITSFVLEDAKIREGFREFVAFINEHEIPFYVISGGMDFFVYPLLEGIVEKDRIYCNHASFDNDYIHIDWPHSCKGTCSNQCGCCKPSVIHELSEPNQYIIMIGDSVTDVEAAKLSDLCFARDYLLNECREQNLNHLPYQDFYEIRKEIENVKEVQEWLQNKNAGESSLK
# [5] = target: MtnB domain of Tetrahymena thermophila MtnBD (Met1-Ser216), histidine-tagged recombinant protein (Tetrahymena thermophila); experiment: native gel or EMSA; native-PAGE, 5-20% gradient polyacrylamide gel, non-denaturing conditions, 1 ug purified protein, mass estimated against native high molecular weight markers; oligomer size from native mass over calculated monomer mass
molecule,measurement,setting,value
"Tetrahymena thermophila MtnBD, full-length, histidine-tagged recombinant protein (enzyme)",stoichiometry N,[1],6
CSC[C@@H](O)[C@@H](O)C(=O)COP(=O)(O)O [MTRu-1-P],UV-visible and 1H-NMR product analysis,[2],T. thermophila MtnBD catalyzed the conversion of MTRu-1-P to HK-MTPenyl-1-P
same,UV-visible and 1H-NMR product analysis,[3],MtnB domain catalyzed the dehydration/enolization reactions to convert MTRu-1-P to HK-MTPenyl-1-P
CSCCC(=O)C(O)=COP(=O)(O)O [HK-MTPenyl-1-P],UV-visible spectral shift to 310 nm and 1H-NMR,[4],DHK-MTPene was obtained from the reaction of B. subtilis MtnX with HK-MTPenyl-1-P
"MtnB domain of Tetrahymena thermophila MtnBD (Met1-Ser216), histidine-tagged recombinant protein (domain or fragment)",stoichiometry N,[5],6
